{"source": "paper PMC12846068", "about": "“Insights into Transport Function of the Murine Organic Anion-Transporting Polypeptide OATP1B2 by Comparison with Its Rat and Human Orthologues” (Toxics, 2025)", "key": {"hOATP1B3 [1]": {"target": "T1, hOATP1B3 (Homo sapiens, UniProt Q9NPD5)", "T1 sequence (Q9NPD5 1-702)": "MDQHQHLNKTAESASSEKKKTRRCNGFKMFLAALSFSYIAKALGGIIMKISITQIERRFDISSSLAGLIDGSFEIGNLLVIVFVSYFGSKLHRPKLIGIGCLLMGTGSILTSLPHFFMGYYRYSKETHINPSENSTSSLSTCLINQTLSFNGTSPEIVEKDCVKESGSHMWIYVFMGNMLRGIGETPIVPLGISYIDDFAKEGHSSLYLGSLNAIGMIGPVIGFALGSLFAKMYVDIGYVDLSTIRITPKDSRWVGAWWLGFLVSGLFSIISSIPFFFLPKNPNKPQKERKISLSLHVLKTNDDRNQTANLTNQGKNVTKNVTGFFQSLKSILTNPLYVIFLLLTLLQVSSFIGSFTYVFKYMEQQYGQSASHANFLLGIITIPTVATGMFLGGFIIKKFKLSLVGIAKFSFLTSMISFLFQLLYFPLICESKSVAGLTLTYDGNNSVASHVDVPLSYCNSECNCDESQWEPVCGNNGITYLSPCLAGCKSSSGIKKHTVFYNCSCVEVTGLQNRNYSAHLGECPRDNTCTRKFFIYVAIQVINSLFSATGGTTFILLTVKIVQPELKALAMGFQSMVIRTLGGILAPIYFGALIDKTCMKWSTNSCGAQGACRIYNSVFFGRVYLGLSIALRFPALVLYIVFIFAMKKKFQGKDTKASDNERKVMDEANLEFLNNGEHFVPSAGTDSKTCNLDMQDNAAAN", "conditions": "read-out: IC50 for OATP1B3; cited from earlier work"}, "hOATP1B3 [2]": {"target": "T1, hOATP1B3", "test": "cis-inhibition of hOATP1B3-mediated TCA uptake in HEK293 cells", "format": "cell-based", "design": "expressed in transfected cells; host or cells: HEK-293, stably transfected", "conditions": "10 µM drug; for Inhibitory effect on hOATP1B3-mediated TCA uptake: 1 µM TCA, 10 min; for inhibition at 10 min, 10 µM: human, HEK293 cells expressing hOATP1B3, probe 1 µM TCA (containing 0.01 µM [3H]-TCA), Inhibitory effect on hOATP1B3-mediated TCA uptake", "procedure": "Inhibitory effects were calculated as a percentage of the net-uptake rates.\nThe means ± average deviation (AD, for N = 2) were calculated from two experiments on two different days. The significance as a p-value was calculated using Student’s t-test in Microsoft Excel."}, "hOATP1B1 [3]": {"target": "T2, hOATP1B1 (Homo sapiens, UniProt Q9Y6L6)", "T2 sequence (Q9Y6L6 1-691)": "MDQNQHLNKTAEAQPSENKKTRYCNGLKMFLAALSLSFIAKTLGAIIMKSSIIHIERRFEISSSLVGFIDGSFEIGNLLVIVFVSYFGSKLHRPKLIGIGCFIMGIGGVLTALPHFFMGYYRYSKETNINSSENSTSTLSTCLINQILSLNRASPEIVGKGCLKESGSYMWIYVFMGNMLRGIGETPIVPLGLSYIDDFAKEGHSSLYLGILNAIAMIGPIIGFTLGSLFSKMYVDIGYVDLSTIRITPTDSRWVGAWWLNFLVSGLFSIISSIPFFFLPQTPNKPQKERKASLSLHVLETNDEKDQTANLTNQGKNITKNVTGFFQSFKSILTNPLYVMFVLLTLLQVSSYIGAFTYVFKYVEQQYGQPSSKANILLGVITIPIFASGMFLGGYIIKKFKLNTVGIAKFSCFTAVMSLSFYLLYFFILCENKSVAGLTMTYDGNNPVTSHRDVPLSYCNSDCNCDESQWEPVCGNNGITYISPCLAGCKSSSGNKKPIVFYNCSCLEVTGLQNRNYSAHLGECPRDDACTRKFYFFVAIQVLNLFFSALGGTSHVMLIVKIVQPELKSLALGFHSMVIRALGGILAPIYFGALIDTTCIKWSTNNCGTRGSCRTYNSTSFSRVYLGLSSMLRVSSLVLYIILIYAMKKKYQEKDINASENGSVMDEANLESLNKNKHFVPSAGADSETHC", "conditions": "read-out: IC50 for hOATP1B1, cited from earlier work"}, "hOATP1B1 [4]": {"target": "T2, hOATP1B1", "design": "expressed in transfected cells; host or cells: HEK-293, stably transfected", "conditions": "read-out: Km as substrate of hOATP1B1; cited from earlier work"}, "rOATP1B2": {"target": "T3, rOATP1B2 (Rattus norvegicus, UniProt Q9QZX8)", "T3 construct": "The full-length mOATP1B2 and rOATP1B2 consist of 689 and 678 amino acids", "T3 sequence (Q9QZX8 1-687)": "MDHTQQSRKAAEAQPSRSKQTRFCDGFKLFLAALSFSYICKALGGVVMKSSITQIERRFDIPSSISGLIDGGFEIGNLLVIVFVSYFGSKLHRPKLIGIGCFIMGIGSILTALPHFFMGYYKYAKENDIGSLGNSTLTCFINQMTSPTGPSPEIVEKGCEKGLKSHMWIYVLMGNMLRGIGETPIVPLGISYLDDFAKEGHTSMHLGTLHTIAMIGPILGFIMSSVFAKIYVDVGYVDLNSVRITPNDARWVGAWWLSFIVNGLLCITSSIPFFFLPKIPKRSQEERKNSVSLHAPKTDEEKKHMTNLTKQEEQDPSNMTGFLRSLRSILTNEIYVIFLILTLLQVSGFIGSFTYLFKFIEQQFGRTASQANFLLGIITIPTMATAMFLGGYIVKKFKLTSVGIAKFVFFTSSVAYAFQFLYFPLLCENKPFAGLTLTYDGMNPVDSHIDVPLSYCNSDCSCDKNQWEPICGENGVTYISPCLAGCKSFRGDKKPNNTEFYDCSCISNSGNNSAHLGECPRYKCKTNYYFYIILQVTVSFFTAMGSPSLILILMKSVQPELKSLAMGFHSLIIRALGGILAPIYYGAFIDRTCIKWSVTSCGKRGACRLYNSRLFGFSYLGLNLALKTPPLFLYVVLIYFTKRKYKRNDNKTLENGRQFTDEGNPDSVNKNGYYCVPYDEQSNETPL", "design": "method as in Ishida et al. (2018) [9]", "conditions": "ref Ishida et al. (2018) [9]; read-out: Km, rOATP1B2-mediated uptake; cited from earlier work"}, "hOATP1B3 [5]": {"target": "T1, hOATP1B3", "design": "expressed in transfected cells; host or cells: HEK-293, stably transfected", "conditions": "read-out: Km as substrate of hOATP1B3; cited from earlier work"}}, "note": "“Also recorded” adds a separate entry of the source. Where two headings read alike, the source gives them in different places.", "data": [{"smiles": "CC(C)CN(C[C@@H](O)[C@H](Cc1ccccc1)NC(=O)O[C@H]1CCOC1)S(=O)(=O)c1ccc(N)cc1", "note": "[Amprenavir, amprenavir]", "values": [{"measurement": "IC50", "setting": "hOATP1B3 [1]", "result": 19.1, "unit": "µM"}, {"measurement": "Inhibitory effect on hOATP1B3-mediated TCA uptake", "setting": "hOATP1B3 [2]", "result": 21, "unit": "%"}, {"measurement": "Inhibitory effect on hOATP1B3-mediated TCA uptake", "setting": "hOATP1B3 [2]; listed as amprenavir", "result": "less than 50%"}, {"measurement": "IC50", "setting": "hOATP1B1 [3]; ref Karlgren et al. (2012) [21]", "result": 16.8, "unit": "µM"}]}, {"smiles": "CO[C@H]1/C=C/O[C@@]2(C)Oc3c(C)c(O)c4c(O)c(c(/C=N/N5CCN(C)CC5)c(O)c4c3C2=O)NC(=O)/C(C)=C\\C=C\\[C@H](C)[C@H](O)[C@@H](C)[C@@H](O)[C@@H](C)[C@H](OC(C)=O)[C@@H]1C", "note": "[Rifampicin, rifampicin]", "values": [{"measurement": "inhibition at 10 min, 10 µM", "setting": "hOATP1B3 [2]", "result": 104, "unit": "%"}]}, {"smiles": "CCCCC1(CCCC)CN(c2ccccc2)c2cc(SC)c(OCC(=O)N[C@@H](C(=O)N[C@@H](CC)C(=O)O)c3ccc(O)cc3)cc2S(=O)(=O)N1", "note": "[Odevixibat, odevixibat]", "values": [{"measurement": "Inhibitory effect on hOATP1B3-mediated TCA uptake", "setting": "hOATP1B3 [2]", "result": "completely inhibited; also recorded: complete inhibition"}, {"measurement": "inhibition at 10 min, 10 µM", "setting": "hOATP1B3 [2]", "result": 102, "unit": "%"}]}, {"smiles": "CC(C)c1nc(N(C)S(C)(=O)=O)nc(-c2ccc(F)cc2)c1/C=C/[C@@H](O)C[C@@H](O)CC(=O)O", "note": "[Rosuvastatin, rosuvastatin]", "values": [{"measurement": "Km", "setting": "hOATP1B1 [4]", "result": 0.8, "unit": "µM"}, {"measurement": "Km", "setting": "rOATP1B2", "result": 28.1, "unit": "µM"}, {"measurement": "inhibition at 10 min, 10 µM", "setting": "hOATP1B3 [2]", "result": 24, "unit": "%"}, {"measurement": "Km", "setting": "hOATP1B3 [5]", "result": 14.2, "unit": "µM"}]}, {"smiles": "Clc1ccccc1C(c1ccccc1)(c1ccccc1)n1ccnc1", "note": "[Clotrimazole, clotrimazole]", "values": [{"measurement": "Inhibitory effect on hOATP1B3-mediated TCA uptake", "setting": "hOATP1B3 [2]", "result": "did not inhibit"}, {"measurement": "inhibition at 10 min, 10 µM", "setting": "hOATP1B3 [2]", "result": -44, "unit": "%"}, {"measurement": "IC50", "setting": "hOATP1B1 [3]", "result": 9, "unit": "µM"}]}, {"smiles": "CC(=O)N1CCN(c2ccc(OCC3COC(Cn4ccnc4)(c4ccc(Cl)cc4Cl)O3)cc2)CC1", "note": "(centres unmarked) [Ketoconazole, ketoconazole]", "values": [{"measurement": "Inhibitory effect on hOATP1B3-mediated TCA uptake", "setting": "hOATP1B3 [2]", "result": 23, "unit": "%"}, {"measurement": "Inhibitory effect on hOATP1B3-mediated TCA uptake", "setting": "hOATP1B3 [2]; listed as ketoconazole", "result": "less than 50%"}, {"measurement": "IC50", "setting": "hOATP1B1 [3]; estradiol-17β-glucuronide as substrate", "result": 1.8, "unit": "µM"}]}]}
